Measurements published in patent US8703215B2, “Agents from Ficus hispida for the amelioration of metabolic syndrome and related diseases” (Laila Nutraceuticals, priority 2009, dated 2014).

How the values were obtained:
human cancer cells = conditions: small panel of human cancer cells; cited from earlier work
[1] = Body weight gain in high fat diet induced obesity model of Sprague-Dawley rats; assay type: in vivo; conditions: 7 mg/kg oral daily, 8 weeks
Text: (§1) Induction: Selected healthy Sprague-Dawley rats were randomly assigned to control or various treatment groups (n=7). All the animals allocated to the obesity study were made experimentally obese through dietary intervention during the entire eight weeks induction period by feeding high fat diet ad libitum containing Bengal gram 32 g, Wheat floor 15 g, Yeast 1 g, Butter 2 g, Ground nut oil 8 g, Casein 5 g, Vanaspathi 20 g, Vitamin mix 05 g, Milk powder 12 g and Mineral Salt mixture 4.5 g per 100 g of high fat diet.
Treatment: Following 8 weeks of induction phase, the animals were treated orally (using oral feeding gavage) with either of the allocated test substances or vehicle daily for 8 weeks. […]
Body weights: Body weight of individual animal was recorded weekly during the entire duration of the study. Mean body weights for the treatment groups and control group were determined. The body weight gain was calculated at the end of 1st week, 4th week and 8th week after initiation of treatment in comparison to initial body weights. The percentage reduction in weight gain in the treatment groups was then calculated by comparing the weight gain in each treatment with that of control group. […]

adiponectin = assay: Serum adiponectin in high fat diet induced obese rats (ELISA); assay type: in vivo, Sprague-Dawley rats; conditions: 7 mg/kg daily, 8 weeks
Text: as §1
(§2) Treatment: Following 8 weeks of induction phase, the animals were treated orally (using oral feeding gavage) with either of the allocated test substances or vehicle daily for 8 weeks. The animals of treatment groups were supplemented with 100 mg/kg body weight of LI/PD/044B/03 or 250 mg/kg body weight of LI/PD/044B/03 or 7 mg/kg body weight of sibutramine in 10 mL of 0.5% CMC in water for further 8 weeks. The control group of animals received only the vehicle (10 mL of 0.5% CMC in water) during this period. During the treatment phase, all animals were provided with the standard rodent diet till the end of the study.
Estimation of Biomarker Adiponectin: The serum adiponectin concentration for the control and treatment groups of animals were assessed using double antibody based sandwich rat adiponectin ELISA kit. […]

[2] = Serum LDL in high fat diet induced obese rats; assay type: in vivo, Sprague-Dawley rats; conditions: 7 mg/kg, 8 weeks
Text: as §1, §2
Serum LDL concentration: The serum LDL levels in animals supplemented with different Treatments and control were estimated on Human Biochemistry Analyzer (German) and the results are summarized in FIG. 7B.

Row | Compound | cytotoxic activity (human cancer cells) | reduction in body weight gain vs control group [1] [%] | improvement in serum adiponectin concentration vs baseline (adiponectin) [%] | serum LDL concentrations [2]
1 | ficustriol | inactive | – | – | –
2 | CC(C)CC(N(C)C)C1(c2ccc(Cl)cc2)CCC1 (centres unmarked) [sibutramine] | – | 40 | 6.3 | significant reduction
3 | COc1ccc2c3c(c4cc(OC)c(OC)cc4c2c1)CN1CCCC1C3O (centres unmarked) [O-Methyltylophorinidine] | potent cytotoxic activity | – | – | –
